Patent US9663545B2, “Organometallic 2-cyano-2-aminobenzoate-propyl derivates and their use as anthelmintics” (UNIVERSITÄT ZÜRICH, priority 2013, dated 2017)

Experiment: stability in sheep plasma (LC-MS)
Conditions: 37° C., different time intervals, diazepam internal standard, new peak of the hydrolysed product arises
Procedure: Compound 8a and diazepam (internal standard) were incubated at 37° C. for different time intervals and their stability was checked using an LC-MS technique.

## 2-cyano-2-(4-((trifluoromethyl)thio)benzamido)propyl ferrocenoate [Compound 8a]
  stability in sheep plasma (LC-MS peak of the compound): decreasing within 24 hours
